Source: ChEMBL document CHEMBL3714769, “Heterocyclic compounds for the inhibition of pask” (2014)

Target: PAS domain-containing serine/threonine-protein kinase (Homo sapiens, UniProt Q96RG2)
Assay: Inhibition of human recombinant PASK using Ulight-peptide substrate incubated for 2 hrs by TR-FRET assay

Sequence of PAS domain-containing serine/threonine-protein kinase (Q96RG2 whole entry, the tested form may be a part): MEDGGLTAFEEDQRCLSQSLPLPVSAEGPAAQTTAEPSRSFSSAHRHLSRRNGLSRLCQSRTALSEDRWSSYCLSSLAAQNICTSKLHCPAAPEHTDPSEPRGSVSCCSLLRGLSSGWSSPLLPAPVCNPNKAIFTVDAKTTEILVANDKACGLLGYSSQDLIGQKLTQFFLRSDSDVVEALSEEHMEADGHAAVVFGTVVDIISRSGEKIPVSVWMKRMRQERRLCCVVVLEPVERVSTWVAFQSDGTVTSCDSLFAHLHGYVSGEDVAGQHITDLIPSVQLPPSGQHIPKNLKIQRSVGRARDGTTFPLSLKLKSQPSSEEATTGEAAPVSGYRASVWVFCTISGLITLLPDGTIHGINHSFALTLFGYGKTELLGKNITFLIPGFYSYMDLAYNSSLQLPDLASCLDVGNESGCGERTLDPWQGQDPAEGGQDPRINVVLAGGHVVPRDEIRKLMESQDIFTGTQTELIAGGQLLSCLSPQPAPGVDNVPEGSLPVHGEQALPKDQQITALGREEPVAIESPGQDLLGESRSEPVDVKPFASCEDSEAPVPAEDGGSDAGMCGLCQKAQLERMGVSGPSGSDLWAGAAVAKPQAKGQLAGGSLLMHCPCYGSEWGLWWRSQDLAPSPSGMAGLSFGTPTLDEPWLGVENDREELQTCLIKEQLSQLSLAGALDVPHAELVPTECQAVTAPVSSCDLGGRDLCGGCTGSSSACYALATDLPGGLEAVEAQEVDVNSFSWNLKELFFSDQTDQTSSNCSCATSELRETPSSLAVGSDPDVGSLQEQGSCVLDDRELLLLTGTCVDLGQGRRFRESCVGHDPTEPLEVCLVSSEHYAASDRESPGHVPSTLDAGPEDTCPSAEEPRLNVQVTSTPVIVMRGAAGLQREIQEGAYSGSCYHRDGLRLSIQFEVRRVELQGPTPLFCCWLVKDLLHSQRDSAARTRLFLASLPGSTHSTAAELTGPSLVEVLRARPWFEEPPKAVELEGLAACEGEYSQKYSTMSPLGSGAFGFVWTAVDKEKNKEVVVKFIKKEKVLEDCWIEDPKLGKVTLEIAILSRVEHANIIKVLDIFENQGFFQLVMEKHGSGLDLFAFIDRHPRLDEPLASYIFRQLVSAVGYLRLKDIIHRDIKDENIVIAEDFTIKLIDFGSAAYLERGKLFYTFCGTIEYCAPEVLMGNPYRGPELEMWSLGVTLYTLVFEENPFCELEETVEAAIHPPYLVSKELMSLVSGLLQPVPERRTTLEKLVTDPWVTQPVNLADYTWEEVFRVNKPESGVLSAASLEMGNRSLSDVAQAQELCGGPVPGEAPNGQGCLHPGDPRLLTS

In the case of COc1cc(-c2cc(=O)n3nc(-c4ccc(F)cc4)nc3[nH]2)ccc1Cl, the IC50 is reported as ≤ 10 µM.

For O=c1cc(-c2ccc3[nH]nnc3c2)[nH]c2nc(-c3ccc(Cl)c(Cl)c3)nn12, the IC50 was ≤ 10 µM.
